This is an account of results in PMC8981238, “C-type cytochrome-initiated reduction of bacterial lytic polysaccharide monooxygenases” (Biochemical Journal, 2021).

The test addresses T1, CfAA10 (Cellulomonas fimi, UniProt F4H6A3).
T1 construct: gene Celf_0270; apparently with its C-terminal CBM (truncation told only for the C. japonicus enzyme)
In words: Amplex Red / horseradish peroxidase coupled H2O2 production, initial rates. Format: biochemical. The note with it: reductant varied, no polysaccharide, O2 from air, 50 mM sodium phosphate pH 6.0, room temperature, 2 µM LPMO.

T1 sequence (F4H6A3 entry or part of it): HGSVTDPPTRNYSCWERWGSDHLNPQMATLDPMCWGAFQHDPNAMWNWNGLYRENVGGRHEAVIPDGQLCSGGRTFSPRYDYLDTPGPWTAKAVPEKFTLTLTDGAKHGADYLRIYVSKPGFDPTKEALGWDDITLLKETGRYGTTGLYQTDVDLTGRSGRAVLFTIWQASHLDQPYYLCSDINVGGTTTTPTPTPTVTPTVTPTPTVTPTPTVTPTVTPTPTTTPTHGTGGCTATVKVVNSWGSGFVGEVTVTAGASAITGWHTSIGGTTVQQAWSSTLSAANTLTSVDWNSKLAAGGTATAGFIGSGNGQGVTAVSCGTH

As to `O=C1O[C@H]([C@@H](O)CO)C(O)=C1O` [ascorbate], the KM result is listed as “KM is consistently lower when CjX183 is used as the reductant compared with ascorbate”.
